Assay results reported in patent publication US5380715A, “Ap4 A as a hypotensive agent” (Fujirebio Inc., priority 1992, dated 1995).
Entries after “also recorded” stand apart in the source; their conditions may differ.

Tests used:
[1] = system: rats; assay: Recovery of blood pressure after gradual hypotension in rats; format: in vivo, male SD rats; conditions: rat
Method: FIG. 1 is a graph showing the recovery of the blood pressure of rats anesthetized with enflurane with time, when each of Ap4A ( ), PG E1 ( ) and nitroglycerin ( ) was used as a test drug to attain gradual hypotension, with the blood pressure before the administration of each test drug being set 100% for reference.
The recovery of blood pressure after gradual hypotension by use of each of Ap4A, PG E1 and nitroglycerin was also tested.
(§1) The control values were obtained before the administration of each test drug. Each test drug was then administered using a syringe in a dose-dependent manner for 15 minutes. The percentage (%) of the decrease of blood pressure was determined when stabilized. Changes in heart rate (H.R.) at the administration of each test drug were measured. Furthermore,the recovery of mean blood pressure after intravenous infusion of each test drug was also determined from the decrease in heart rate and the blood pressure at a maximum dose of each test drug.
In a test similar to the above, each of Ap4A, PG E1, and nitroglycerin was administered to rats, so that about 65% fall in blood pressure, about 55% fall in blood pressure, and about 35% fall in blood pressure were stepwise attained. With respect to each agent, the recovery of blood pressure was tested.

[2] = words; cited from earlier work
[3] = system: dogs; assay: Gradual hypotension during anesthesia in dogs (hemodynamics, blood gas); format: in vivo, mongrel dogs; conditions: dog
Method: Dogs were anesthetized with enflurane. […] The mean blood pressure (B.P.), heart rate (H.R.), cardiac output (C.O.), arterial oxygen tension (PaO2), mixed venos oxygen tension (PvO2), arterial carbonate tension (PaCO2), mixed venous carbonate tension (PvCO2), arterial pH (pH-a), mixed venous pH (pH-v), and base excess thereof were measured.
Mongrel dogs weighing 9 to 17 kg were anesthetized with intravenous thiopental 20 mg/kg by bolus injection, followed by 1% enflurane in 40% O2 /N2 after endotracheal intubation. […] Bilateral femoral arteries were catheterized, one for the determination of blood pressure and the other for blood sampling.
Access to the bilateral femoral veins was obtained for the administration of Ap4A, PG E1 or nitroglycerin and for the insertion of a ballon-tipped thermodilution catheter. The electrocardiogram was continuously monitored. The control values were obtained before the administration of each of the above-mentioned three agents. Each agent was administered using a syringe pump at titrated doses to produce gradual 20%, 40%, 50%, 60%, and 80% decreases in the mean arterial pressure (MAP) from the control value.
After the target blood pressure and stable hemodynamic conditions were reached, the following parameters were measured: heart rate (HR), mean pulmonary artery pressure (PAM), pulmonary capillary wedge pressure (PCWP), and central venous pressure (CVP). Cardiac output (CO) was determined by the thermodilution method. Gas analyses of arterial and mixed venous bloods were performed using a blood gas analyzer.

[4] = system: rats; assay: Gradual hypotension during anesthesia in rats; format: in vivo, male SD rats; conditions: rat, enflurane
Method: Male SD rats (Charles River Japan Inc.) were anesthetized with intravenous thiopental 50 mg/kg as a bolus, followed by 1% enflurane in air.
A femoral artery was catheterized to monitor the blood pressure and heart rate, while a femoral vein was catheterized for the administration of each of the test drugs.
as §1

[5] = enflurane, at -20% blood pressure

## O=[N+]([O-])OCC(CO[N+](=O)[O-])O[N+](=O)[O-] [nitroglycerin, reference compound]
[1]; plateau
  recovered blood pressure (before administration = 100%), plateau: about 85%
[1]; stepwise
  fall in blood pressure attained before recovery: about 35%
[1]; order in words
  rapidness of the recovery of blood pressure: Ap4A>PG E1 >nitroglycerin
[2]
  shortcomings / adverse effects: congestion by the expansion of vanation, and tachycardia are caused; also recorded: sthenia of brain pressure is caused; also recorded: the arterial oxygen tension (PaO2) is decreased during hypotensive anesthesia
[3]; enflurane
  fall in blood pressure attainable: ~30%
[3]; [5]
  Arterial Carbonate Tension PaCO2: 36.4 ± 1.6 mmHg
  Arterial Oxygen Tension PaO2: 229.9 ± 2.7 mmHg
  Arterial pH (pH-a): 7.315 ± 0.020
  Body Temperature BT: 38.6 ± 0.3 °C
  Cardiac Output C.O.: 1.58 ± 0.21 L/min
  Central Venous Pressure CVP: 2.32 ± 0.75 mmHg
  Dose: 42.2 ± 2.0 µg/kg/min
  Heart Rate H.R.: 191.7 ± 7.5 beats/min
  Hematocrit Value Hct: 42.2 ± 2.0%
  Mean Blood Pressure B.P. (mean): 101.0 ± 1.5
  Mean Blood Pressure B.P. (Δ%): -18.7 ± 0.9%
  Mixed Venous Carbonate Tension PvCO2: 39.6 ± 1.6 mmHg
  Mixed Venous Oxygen Tension PvO2: 46.5 ± 2.7 mmHg
  Mixed Venous pH (pH-v): 7.300 ± 0.014
  Pulmonary Artery Pressure PAM: 12.8 ± 1.0 mmHg
  Pulmonary Capillary Wedge Pressure PCWP: 8.0 ± 0.6 mmHg
[3]; result in words
  effect on arterial pH / venous pH: significantly decrease arterial pH or have a tendency to decrease arterial pH
  effect on heart rate: tendency to increase the heart rate when a 20% fall in blood pressure is attained
  effect on oxygen tension: decreases PaO2
[4]; infusion 0.03 μg/kg/min
  Blood Pressure (Δ%): 0%
  Heart Rate (Δ%): 0%
[4]; infusion 0.1 μg/kg/min
  Blood Pressure (Δ%): 0%
  Heart Rate (Δ%): 0%
[4]; infusion 0.3 μg/kg/min
  Blood Pressure (Δ%): -1.0 ± 1.0%
  Heart Rate (Δ%): -0.3 ± 0.5%
[4]; infusion 1 μg/kg/min
  Blood Pressure (Δ%): -7.5 ± 3.2%
  Heart Rate (Δ%): -1.5 ± 1.1%
[4]; infusion 3 μg/kg/min
  Blood Pressure (Δ%): -16.4 ± 4.4%
  Heart Rate (Δ%): -6.5 ± 2.3%
[4]; infusion 10 μg/kg/min
  Blood Pressure (Δ%): -24.7 ± 4.4%
  Heart Rate (Δ%): -13.9 ± 4.0%
[4]; infusion 30 μg/kg/min
  Blood Pressure (Δ%): -27.6 ± 5.2%
  Heart Rate (Δ%): -13.8 ± 4.7%
